One compound from publication PMC5725665, “Discovery of a Highly Selective Cell‐Active Inhibitor of the Histone Lysine Demethylases KDM2/7” (Angewandte Chemie (International Ed. in English), 2017) can be followed below.

One assay has as its target T1, KDM2A (Homo sapiens, UniProt Q9Y2K7).
T1 construct: isolated enzyme
T1 sequence (Q9Y2K7 1-517 limits assumed): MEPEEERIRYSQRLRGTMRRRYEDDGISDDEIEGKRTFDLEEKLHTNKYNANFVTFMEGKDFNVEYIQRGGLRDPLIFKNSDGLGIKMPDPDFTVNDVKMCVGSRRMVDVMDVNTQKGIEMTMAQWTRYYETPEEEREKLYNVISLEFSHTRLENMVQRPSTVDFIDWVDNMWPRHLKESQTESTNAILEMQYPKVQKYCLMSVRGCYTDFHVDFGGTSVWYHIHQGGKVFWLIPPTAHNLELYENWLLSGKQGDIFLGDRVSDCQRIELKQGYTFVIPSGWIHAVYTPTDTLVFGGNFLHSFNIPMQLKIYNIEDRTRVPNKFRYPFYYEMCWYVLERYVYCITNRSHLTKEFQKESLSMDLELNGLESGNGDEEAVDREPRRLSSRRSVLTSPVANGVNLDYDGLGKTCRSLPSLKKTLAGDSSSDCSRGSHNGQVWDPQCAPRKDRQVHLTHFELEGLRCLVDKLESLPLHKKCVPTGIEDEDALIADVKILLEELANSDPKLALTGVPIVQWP
In words: demethylase activity assay (RapidFire MS / AlphaScreen). The class given is biochemical. The settings on record: not competitive with 2-OG or peptide substrate.

The next assay concerns the target JARID1A (KDM5A) (Homo sapiens, UniProt P29375). In words: biochemical. More on the design: AlphaScreen histone demethylase activity assay.
The target of the next assay is JARID1B (KDM5B) (Homo sapiens, UniProt Q9UGL1). In words: biochemical. More on the design: AlphaScreen histone demethylase activity assay. To be noted: read-out: KDM5B pIC50 (converted).
The target of another assay is T2, JMJD2C (KDM4C) (Homo sapiens, UniProt Q9H3R0).
T2 sequence (Q9H3R0 1-1056): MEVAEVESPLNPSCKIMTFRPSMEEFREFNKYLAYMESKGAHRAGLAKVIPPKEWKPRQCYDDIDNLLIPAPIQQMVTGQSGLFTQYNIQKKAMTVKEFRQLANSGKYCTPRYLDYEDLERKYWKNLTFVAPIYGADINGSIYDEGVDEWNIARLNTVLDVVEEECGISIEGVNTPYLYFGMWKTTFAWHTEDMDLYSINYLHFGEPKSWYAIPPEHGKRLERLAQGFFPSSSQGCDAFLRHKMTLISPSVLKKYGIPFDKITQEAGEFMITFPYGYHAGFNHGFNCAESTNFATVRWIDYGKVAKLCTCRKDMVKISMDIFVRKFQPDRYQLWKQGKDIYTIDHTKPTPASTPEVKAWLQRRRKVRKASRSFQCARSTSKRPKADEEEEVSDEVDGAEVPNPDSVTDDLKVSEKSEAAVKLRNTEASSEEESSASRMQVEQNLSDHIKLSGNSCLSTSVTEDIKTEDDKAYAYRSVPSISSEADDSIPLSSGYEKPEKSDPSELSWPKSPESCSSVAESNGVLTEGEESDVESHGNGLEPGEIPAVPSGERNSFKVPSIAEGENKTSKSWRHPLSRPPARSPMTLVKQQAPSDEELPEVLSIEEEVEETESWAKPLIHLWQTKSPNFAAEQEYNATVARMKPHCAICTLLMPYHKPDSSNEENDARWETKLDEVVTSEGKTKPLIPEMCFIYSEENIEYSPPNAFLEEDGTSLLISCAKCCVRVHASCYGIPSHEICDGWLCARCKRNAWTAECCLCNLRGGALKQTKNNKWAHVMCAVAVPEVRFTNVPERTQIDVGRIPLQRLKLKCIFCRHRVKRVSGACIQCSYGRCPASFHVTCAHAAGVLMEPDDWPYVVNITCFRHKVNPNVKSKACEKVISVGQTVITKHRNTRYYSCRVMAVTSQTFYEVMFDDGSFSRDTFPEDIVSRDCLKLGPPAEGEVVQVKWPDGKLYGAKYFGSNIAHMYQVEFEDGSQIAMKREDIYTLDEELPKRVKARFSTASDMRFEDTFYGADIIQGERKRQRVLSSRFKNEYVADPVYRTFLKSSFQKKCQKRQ
In words: biochemical. More on the design: AlphaScreen histone demethylase activity assay.

In a further assay the target is T3, JMJD2D (KDM4D) (Homo sapiens, UniProt Q6B0I6).
T3 sequence (Q6B0I6 1-523): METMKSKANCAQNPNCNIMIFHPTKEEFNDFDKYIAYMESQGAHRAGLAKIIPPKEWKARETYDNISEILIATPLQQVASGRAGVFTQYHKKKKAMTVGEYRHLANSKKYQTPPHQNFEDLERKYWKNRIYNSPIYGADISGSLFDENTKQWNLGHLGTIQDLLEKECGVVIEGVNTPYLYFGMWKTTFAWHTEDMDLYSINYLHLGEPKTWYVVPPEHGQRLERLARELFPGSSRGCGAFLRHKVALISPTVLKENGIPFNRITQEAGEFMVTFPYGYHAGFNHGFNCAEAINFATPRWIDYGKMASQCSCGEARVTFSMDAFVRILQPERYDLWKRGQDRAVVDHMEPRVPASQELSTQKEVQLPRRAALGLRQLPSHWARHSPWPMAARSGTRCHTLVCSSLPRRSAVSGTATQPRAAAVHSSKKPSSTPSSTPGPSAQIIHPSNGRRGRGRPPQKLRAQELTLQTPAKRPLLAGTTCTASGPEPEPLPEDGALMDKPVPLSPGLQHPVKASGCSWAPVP
In words: biochemical. More on the design: AlphaScreen histone demethylase activity assay.

The target of another assay is JMJD3A (KDM6B) (Homo sapiens, UniProt O15054). In words: biochemical. More on the design: AlphaScreen histone demethylase activity assay. To be noted: read-out: KDM6B pIC50 (converted).

SMILES strings stand for the structures.

Chain of JARID1A (KDM5A) (P29375 whole entry): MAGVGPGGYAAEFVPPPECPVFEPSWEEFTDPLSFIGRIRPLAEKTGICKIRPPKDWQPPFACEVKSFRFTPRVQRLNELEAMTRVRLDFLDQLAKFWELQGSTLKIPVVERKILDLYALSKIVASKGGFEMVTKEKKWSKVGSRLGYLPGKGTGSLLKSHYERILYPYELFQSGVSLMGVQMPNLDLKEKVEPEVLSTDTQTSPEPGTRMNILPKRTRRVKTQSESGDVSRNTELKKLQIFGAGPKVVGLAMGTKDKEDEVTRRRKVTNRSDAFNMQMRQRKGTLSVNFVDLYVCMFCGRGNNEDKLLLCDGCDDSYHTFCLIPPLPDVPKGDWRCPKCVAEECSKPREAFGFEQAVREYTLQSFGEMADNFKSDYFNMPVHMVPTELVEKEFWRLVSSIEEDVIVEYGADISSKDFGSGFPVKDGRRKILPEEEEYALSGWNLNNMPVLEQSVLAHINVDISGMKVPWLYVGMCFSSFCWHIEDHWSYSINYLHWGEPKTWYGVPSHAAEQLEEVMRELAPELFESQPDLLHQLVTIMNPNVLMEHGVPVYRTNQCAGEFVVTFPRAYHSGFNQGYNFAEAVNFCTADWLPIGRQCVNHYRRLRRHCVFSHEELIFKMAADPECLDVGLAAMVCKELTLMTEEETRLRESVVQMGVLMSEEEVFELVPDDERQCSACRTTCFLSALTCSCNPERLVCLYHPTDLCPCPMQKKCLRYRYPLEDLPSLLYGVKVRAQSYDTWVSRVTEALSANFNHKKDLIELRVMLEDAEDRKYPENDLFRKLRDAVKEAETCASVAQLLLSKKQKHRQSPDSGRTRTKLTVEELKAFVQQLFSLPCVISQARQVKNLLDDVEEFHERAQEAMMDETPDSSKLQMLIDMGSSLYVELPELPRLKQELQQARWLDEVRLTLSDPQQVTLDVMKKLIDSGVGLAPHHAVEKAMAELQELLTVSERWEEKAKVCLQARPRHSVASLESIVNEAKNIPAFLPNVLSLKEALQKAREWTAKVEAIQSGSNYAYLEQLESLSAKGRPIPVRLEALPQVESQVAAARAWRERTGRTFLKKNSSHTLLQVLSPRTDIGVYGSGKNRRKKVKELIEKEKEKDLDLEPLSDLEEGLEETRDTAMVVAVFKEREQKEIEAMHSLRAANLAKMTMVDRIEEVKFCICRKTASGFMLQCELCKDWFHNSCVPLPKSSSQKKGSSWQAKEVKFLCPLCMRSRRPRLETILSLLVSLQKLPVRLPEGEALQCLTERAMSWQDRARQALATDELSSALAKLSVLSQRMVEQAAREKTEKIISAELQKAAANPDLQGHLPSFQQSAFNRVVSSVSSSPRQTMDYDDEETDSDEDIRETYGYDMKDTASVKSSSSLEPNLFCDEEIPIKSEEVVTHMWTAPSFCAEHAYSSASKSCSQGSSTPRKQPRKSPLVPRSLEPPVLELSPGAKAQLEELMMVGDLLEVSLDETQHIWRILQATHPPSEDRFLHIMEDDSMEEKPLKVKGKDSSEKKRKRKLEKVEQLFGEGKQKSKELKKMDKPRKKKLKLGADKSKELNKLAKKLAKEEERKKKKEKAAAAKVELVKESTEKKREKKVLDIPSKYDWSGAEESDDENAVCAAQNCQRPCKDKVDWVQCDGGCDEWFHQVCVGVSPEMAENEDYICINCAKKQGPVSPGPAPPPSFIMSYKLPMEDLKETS
Chain of JMJD3A (KDM6B) (O15054 whole entry): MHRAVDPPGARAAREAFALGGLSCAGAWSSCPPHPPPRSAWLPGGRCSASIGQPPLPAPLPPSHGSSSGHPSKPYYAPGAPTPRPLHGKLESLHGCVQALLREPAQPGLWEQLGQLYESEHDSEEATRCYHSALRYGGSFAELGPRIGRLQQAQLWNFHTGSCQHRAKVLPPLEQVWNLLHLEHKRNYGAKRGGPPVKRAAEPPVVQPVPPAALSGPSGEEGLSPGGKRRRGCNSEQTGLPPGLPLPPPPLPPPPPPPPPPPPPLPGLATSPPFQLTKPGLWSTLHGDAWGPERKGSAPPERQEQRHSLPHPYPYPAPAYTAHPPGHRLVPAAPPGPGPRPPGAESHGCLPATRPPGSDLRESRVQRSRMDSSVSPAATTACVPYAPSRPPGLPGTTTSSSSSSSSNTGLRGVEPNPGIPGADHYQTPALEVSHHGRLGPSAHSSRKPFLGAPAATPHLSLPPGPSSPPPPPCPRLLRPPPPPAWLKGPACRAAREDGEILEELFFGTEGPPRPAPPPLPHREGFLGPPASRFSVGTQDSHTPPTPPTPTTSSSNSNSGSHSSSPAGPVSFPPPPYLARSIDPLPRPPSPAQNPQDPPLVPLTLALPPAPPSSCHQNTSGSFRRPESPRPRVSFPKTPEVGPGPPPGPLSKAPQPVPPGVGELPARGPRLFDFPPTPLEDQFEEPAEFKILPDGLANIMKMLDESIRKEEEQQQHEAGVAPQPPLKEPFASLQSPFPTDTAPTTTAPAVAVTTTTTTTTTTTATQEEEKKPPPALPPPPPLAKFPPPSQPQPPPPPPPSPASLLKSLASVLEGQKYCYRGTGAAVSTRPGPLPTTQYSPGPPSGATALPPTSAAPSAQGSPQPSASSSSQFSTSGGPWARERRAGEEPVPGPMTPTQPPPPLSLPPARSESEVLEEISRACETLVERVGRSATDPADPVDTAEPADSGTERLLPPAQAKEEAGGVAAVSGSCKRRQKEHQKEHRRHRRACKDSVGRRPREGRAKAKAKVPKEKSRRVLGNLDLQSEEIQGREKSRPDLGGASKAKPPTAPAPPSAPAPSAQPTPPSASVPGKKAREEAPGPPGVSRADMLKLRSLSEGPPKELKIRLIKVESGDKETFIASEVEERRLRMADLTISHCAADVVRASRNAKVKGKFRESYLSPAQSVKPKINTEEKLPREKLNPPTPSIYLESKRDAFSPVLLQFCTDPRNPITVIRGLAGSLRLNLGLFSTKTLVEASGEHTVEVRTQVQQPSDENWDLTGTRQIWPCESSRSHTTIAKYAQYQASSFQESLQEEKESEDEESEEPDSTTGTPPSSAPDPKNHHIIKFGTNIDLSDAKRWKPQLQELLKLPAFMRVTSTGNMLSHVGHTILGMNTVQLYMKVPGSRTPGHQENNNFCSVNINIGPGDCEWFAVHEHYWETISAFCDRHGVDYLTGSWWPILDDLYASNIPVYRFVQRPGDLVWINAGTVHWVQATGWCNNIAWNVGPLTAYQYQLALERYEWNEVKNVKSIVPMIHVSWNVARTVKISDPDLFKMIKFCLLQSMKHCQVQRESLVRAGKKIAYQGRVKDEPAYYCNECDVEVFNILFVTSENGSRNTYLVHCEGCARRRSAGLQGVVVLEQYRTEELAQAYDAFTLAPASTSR
Chain of JARID1B (KDM5B) (Q9UGL1 whole entry): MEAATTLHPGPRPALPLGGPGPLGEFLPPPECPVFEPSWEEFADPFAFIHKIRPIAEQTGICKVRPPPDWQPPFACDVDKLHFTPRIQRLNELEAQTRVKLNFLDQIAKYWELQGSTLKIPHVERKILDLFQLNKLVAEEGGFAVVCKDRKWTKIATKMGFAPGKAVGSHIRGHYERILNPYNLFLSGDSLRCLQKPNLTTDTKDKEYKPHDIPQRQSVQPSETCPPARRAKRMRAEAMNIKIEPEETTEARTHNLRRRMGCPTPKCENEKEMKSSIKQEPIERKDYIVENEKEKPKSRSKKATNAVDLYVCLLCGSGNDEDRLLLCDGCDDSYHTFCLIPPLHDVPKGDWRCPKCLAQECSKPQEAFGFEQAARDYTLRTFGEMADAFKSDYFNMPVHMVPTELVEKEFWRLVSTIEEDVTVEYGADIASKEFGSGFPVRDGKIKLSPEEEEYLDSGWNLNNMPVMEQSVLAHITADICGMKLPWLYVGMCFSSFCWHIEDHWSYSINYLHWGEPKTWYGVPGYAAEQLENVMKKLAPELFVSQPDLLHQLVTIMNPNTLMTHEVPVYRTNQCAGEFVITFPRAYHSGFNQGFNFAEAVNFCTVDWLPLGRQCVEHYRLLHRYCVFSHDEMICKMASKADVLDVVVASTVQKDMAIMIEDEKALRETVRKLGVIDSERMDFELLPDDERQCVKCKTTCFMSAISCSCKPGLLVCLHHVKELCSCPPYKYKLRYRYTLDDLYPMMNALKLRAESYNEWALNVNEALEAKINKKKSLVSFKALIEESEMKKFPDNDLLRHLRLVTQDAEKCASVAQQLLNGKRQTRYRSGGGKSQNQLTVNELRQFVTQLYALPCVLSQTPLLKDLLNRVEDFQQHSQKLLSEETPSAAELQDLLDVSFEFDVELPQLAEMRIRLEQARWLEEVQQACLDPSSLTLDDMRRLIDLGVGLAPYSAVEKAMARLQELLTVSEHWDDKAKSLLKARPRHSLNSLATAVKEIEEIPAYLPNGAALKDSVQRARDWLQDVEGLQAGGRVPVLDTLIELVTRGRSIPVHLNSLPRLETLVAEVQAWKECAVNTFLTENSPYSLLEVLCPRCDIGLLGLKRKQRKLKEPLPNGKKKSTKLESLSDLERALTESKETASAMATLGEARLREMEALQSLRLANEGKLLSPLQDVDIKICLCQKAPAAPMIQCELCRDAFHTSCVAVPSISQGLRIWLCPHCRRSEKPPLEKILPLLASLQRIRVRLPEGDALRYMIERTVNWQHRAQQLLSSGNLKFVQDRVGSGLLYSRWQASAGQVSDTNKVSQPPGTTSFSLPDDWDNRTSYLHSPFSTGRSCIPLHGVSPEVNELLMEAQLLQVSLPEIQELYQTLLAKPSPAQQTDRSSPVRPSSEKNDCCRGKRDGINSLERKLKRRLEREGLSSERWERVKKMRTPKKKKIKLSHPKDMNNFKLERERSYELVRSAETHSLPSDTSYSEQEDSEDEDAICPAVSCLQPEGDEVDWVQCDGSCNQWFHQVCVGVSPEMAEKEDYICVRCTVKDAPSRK

As to `CC(=O)N1c2ccccc2[C@@](C#N)(c2ccccc2)[C@@H]1c1cncc(CCCCCCCN2CCCC2)c1` [(S,S)-6], the IC50 on KDM2A is 160 nM; on JARID1A (KDM5A) (read-out: KDM5A pIC50 (converted)) it was over 50.1 µM; on JARID1B (KDM5B), 13.1 µM; at JMJD2C (KDM4C) (read-out: KDM4C pIC50 (converted)) it was over 100 µM; at JMJD2D (KDM4D) (read-out: KDM4D pIC50 (converted)) it was over 100 µM; on JMJD3A (KDM6B) it was 19.8 µM. On JARID1A (KDM5A), the inhibition at 50 µM was -20.3%. For the same compound, the inhibition at 10 µM was 30.5% at JMJD2C (KDM4C) (read-out: KDM4C % Inhib. (10 uM)) and 22.6% at JMJD2D (KDM4D).
